Results on 25 molecules are retold here after US6365584B1, “Arylysulphonamide-substituted benzimidazoles having tryptase-inhibiting activity” (Boehringer Ingelheim Pharma KG, priority 1999, dated 2002).

A word on the pIC50: it is −log10 of the IC50, conventionally taken in molar units. The melting point is the temperature of the solid-liquid transition.

pIC50: −log10 of the molar value. Structures can show the parent of a compound that is named as a salt.

T1 sequence (Q15661 31-275): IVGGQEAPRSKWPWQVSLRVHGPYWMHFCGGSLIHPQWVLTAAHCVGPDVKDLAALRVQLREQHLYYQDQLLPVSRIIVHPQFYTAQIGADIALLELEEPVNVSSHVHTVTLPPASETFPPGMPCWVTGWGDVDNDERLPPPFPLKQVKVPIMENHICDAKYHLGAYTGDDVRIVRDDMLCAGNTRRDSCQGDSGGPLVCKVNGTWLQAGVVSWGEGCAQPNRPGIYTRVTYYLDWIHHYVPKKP

The first series concerns the target T1, rh beta tryptase (Homo sapiens, UniProt Q15661).
T1 construct: purchased Promega
In words: tryptase inhibition test (cleavage of N-p-tosyl-Gly-Pro-Lys-para-nitroaniline, p-nitroaniline measured at 405 nm). Format: biochemical. The following applies: Tris HCl buffer pH 7.4 with calcium and heparin; substrate 0.6 mM; 5 min pre-incubation, 5 min incubation at 37° C.; enzyme activity 0.91 U/ml. Here is the method:
The compounds according to the invention are characterised by their tryptase-inhibiting activity. This ability to inhibit tryptase was investigated using the test described below. The measurement is carried out in Tris HCl buffer (100 mM), which additionally contains calcium (5 mM) and heparin (100 mg/ml), at pH 7.4. The standard used is rh beta tryptase which may be obtained commercially from Promega, for example. The substrate used is N-p-tosyl-Gly-Pro-Lys-para-nitroaniline in a concentration of 0.6 mM. The substrate is digested with tryptase to form p-nitroaniline which can be measured at 405 nm. Usually, an incubation period of 5 minutes and an incubation temperature of 37° C. are chosen. The enzyme activity used is 0.91 U/ml. The measurements are carried out in an Autoanalyser (CobasBio) made by Hofmann LaRoche. The potential inhibitory substances are used in concentrations of 10 μM in the screening, the inhibition of the tryptase being given in percent. The IC50 is determined at over 70% inhibition (concentration at which 50% of the enzyme activity is inhibited). After 5 minutes' pre-incubation of the potential inhibitory substances, the substrate is added to start the reaction, the formation of p-nitroaniline being taken as a measurement of the enzyme activity after 5 minutes, after testing the linearity.
The data obtained after the above test has been carried out (IC50 values) can be found in Table 3.
Consider `Cn1c(CCc2ccc(C(=N)N)cc2)nc2cc(N(CCN3CCCCC3)S(=O)(=O)c3ccccc3)ccc21` [Example 33, 1-methyl-2-[2-(4-amidino-phenyl)-ethyl]-5-[N-(2-piperidin-1-ylethyl)-benzene-sulphonylamino]-benzimidazole], for which the pIC50 is 7.36.
Take `Cn1c(CCc2ccc(C(=N)N)cc2)nc2cc(N(C3CCNCC3)S(=O)(=O)c3ccccc3)ccc21` [Example 11, 1-methyl-2-[2-(4-amidino-phenyl)-ethyl]-5-[N-(4-piperidinyl)-benzenesulphonyl-amino]-benzimidazole]: the pIC50 was 7.05.
Still for that read-out and setting: under `CCCN(CCC)C1CCC(N(c2ccc3c(c2)nc(CCc2ccc(C(=N)N)cc2)n3C)S(=O)(=O)c2ccccc2)CC1` (stereo not shown) [Example 7, 1-methyl-2-[2-(4-amidino-phenyl)-ethyl]-5-[N-(4-dipropyl-amino-cyclohexanyl)-benzene-sulphonyl-amino]-benzimidazole] stands 6.96.
Turning to `CCN(CC)CCN(c1ccc2c(c1)nc(CCc1ccc(C(=N)N)cc1)n2C)S(=O)(=O)c1ccccc1` [Example 2, N-{2-[2-(4-amidinophenyl)-ethyl]-1-methyl-benzimidazol-5-yl}-N-diethylaminoethyl-(benzenesulphonamide)-dihydrochloride], the pIC50 was 7.60.
On to `Cn1c(CCc2ccc(C(=N)N)cc2)nc2cc(N(CC(=O)N3CCN(c4ccncc4)CC3)S(=O)(=O)c3ccc4ccccc4c3)ccc21` [Example 49, 1-Methyl-2-[2-(4-amidino-phenyl)-ethyl]-5-[N-(4′-pyrid-4″- yl-piperazin-1-yl-carbonyl-methyl)-naphth-2-ylsulphonyl-amino]-benzimidazole], for which the pIC50 is 6.73.
On the same count and under the same terms, the figure for `Cn1c(CCc2ccc(C(=N)N)cc2)nc2cc(N(C3CCNC3)S(=O)(=O)c3ccccc3)ccc21` (stereo not shown) [Example 14, 1-methyl-2-[2-(4-amidino-phenyl)-ethyl]-5-[N-(3-pyrrolidinyl)-benzenesulphonyl-amino]-benzimidazole] is 7.09.
Still for that read-out and setting: the figure for `Cn1c(CCc2ccc(C(=N)N)cc2)nc2cc(N(CCN3CCCC3)S(=O)(=O)c3ccccc3)ccc21` [Example 34, 1-methyl-2-[2-(4-amidino-phenyl)-ethyl]-5-[N-(2-pyrrolidin-1-ylethyl)-benzene-sulphonylamino]-benzimidazole] is 7.37; for `CCN(CC)CCN(c1ccc2c(c1)nc(CCc1ccc(C(=N)N)cc1)n2C)S(=O)(=O)c1cccc2cccnc12` [Example 52, 1-Methyl-2-[2-(4-amidino-phenyl)-ethyl]-5-[N-(2-diethyl-aminoethyl)-quinol-8-yl-sulphonylamino]-benzimidazole;] it is 7.54; for `CCN(CC)CCN(c1ccc2c(c1)nc(CCc1ccc(C(=N)N)cc1)n2CCCO)S(=O)(=O)c1ccccc1` [Example 19, 1-(3-hydroxypropyl)-2-[2-(4-amidinophenyl)-ethyl]-5-[N-(2-diethylaminoethyl)-benzene-sulphonylamino]-benzimidazole] it is 6.62.
Same read-out and setting: under `CN1CCC(CN(c2ccc3c(c2)nc(CCc2ccc(C(=N)N)cc2)n3C)S(=O)(=O)c2ccccc2)C1` (stereo not shown) [Example 8, 1-methyl-2-[2-(4-amidino-phenyl)-ethyl]-5-[N-(1-methyl-pyrrolidin-3-yl-methyl)-benzene-sulphonyl-amino]-benzimidazole] stands 7.05; under `CN1CCC(N(c2ccc3c(c2)nc(CCc2ccc(C(=N)N)cc2)n3C)S(=O)(=O)c2ccccc2)CC1` [Example 12, 1-methyl-2-[2-(4-amidino-phenyl)-ethyl]-5-[N-(1-methyl-piperidin-4-yl)-benzene-sulphonylamino]-benzimidazole], 6.75.
Consider `Cn1c(CCc2ccc(C(=N)N)cc2)nc2cc(N(CC(=O)N3CCN(Cc4ccccc4)CC3)S(=O)(=O)c3ccc4ccccc4c3)ccc21` [Example 50, 1-Methyl-2-[2-(4-amidino-phenyl)-ethyl]-5-[N-(4′-benzyl-piperazin-1-yl-carbonylmethyl)-naphth-2-ylsulphonylamino]-benzimidazole], for which the pIC50 was 6.67.
The same measure, in the same setting: under `CCN(CC)CCN(c1ccc2c(c1)nc(CCc1ccc(C(=N)N)cc1)n2C)S(=O)(=O)c1cccc2cnccc12` [Example 53, 1-Methyl-2-[2-(4-amidino-phenyl)-ethyl]-5-[N-(2-diethyl-aminoethyl)-isoquinol-5-yl-sulphonylamino]-benzimidazole;] stands 7.42; under `CCOCCCn1c(CCc2ccc(C(=N)N)cc2)nc2cc(N(CCN(CC)CC)S(=O)(=O)c3ccccc3)ccc21` [Example 3, N-{2-[2-(4-amidinophenyl)-ethyl]-1-(3-ethoxy-propyl)-benzimidazol-5-yl}-N-diethylaminoethyl-(benzenesulphonamide)-dihydrochloride], 6.88.
On the same count and under the same terms, the figure for `CCN(CC)CCN(c1ccc2c(c1)nc(CCc1ccc(C(=N)N)cc1)n2CC1CCCO1)S(=O)(=O)c1ccccc1` (stereo not shown) [Example 27, 1-(2-tetrahydrofurylmlethyl)-2-[2-(4-amidinophenyl)-ethyl]-5-[N-(2-diethylaminoethyl)-benzenesulphonylamino]-benzimidazole] is 6.56; for `Cn1c(CCc2ccc(C(=N)N)cc2)nc2cc(N(Cc3cccnc3)S(=O)(=O)c3ccc4ccccc4c3)ccc21` [Example 45, 1-Methyl-2-[2-(4-amidino-phenyl)-ethyl]-5-[N-(pyrid-3-yl-methyl)-naphth-2-ylsulphonyl-amino]-benzimidazole;] it is 7.66; for `CN1CCCC1CN(c1ccc2c(c1)nc(CCc1ccc(C(=N)N)cc1)n2C)S(=O)(=O)c1ccccc1` (stereo not shown) [Example 9, 1-methyl-2-[2-(4-amidino-phenyl)-ethyl]-5-[N-(1-methyl-pyrrolidin-2-yl-methyl)-benzene-sulphonyl-amino]-benzimidazole] it is 7.21.
The same measure, in the same setting: under `CN(C)CCCCN(c1ccc2c(c1)nc(CCc1ccc(C(=N)N)cc1)n2C)S(=O)(=O)c1ccccc1` [Example 54, 1-Methyl-2-[2-(4-amidino-phenyl)-ethyl]-5-[N-(4-dimethyl-aminobutyl)-benzenesulphonyl-amino]-benzimidazole] stands 7.57.
For `Cn1c(CCc2ccc(C(=N)N)cc2)nc2cc(N(CC(=O)N3CCNCC3)S(=O)(=O)c3ccc4ccccc4c3)ccc21` [Example 48, 1-Methyl-2-[2-(4-amidino-phenyl)-ethyl]-5-[N-(piperazin-1-yl-carbonylmethyl)-naphth-2-ylsulphonylamino]-benzimidazole], the pIC50 was 6.84.
On to `CCN(CC)CCN(c1ccc2c(c1)nc(CCc1ccc(C(=N)N)cc1)n2CCc1ccccc1)S(=O)(=O)c1ccccc1` [Example 24, 1-(2-phenylethyl)-2-[2-(4-amidinophenyl)-ethyl]-5-[N-(2-diethylaminoethyl)-benzene-sulphonylamino]-benzimidazole], for which the pIC50 is 6.72.
On the same count and under the same terms, the figure for `CN(C)c1ccc(CN(c2ccc3c(c2)nc(CCc2ccc(C(=N)N)cc2)n3C)S(=O)(=O)c2ccccc2)cc1` [Example 4, N-{2-[2-(4-amidinophenyl)-ethyl]-1-methyl-benzimidazol-5-yl}-N-(4-dimethylaminobenzyl)-(benzenesulphonamide)-dihydrochloride] is 6.91; for `Cn1c(CCc2ccc(C(=N)N)cc2)nc2cc(N(CCN3CCOCC3)S(=O)(=O)c3ccc4ccccc4c3)ccc21` [Example 47, 1-Methyl-2-[2-(4-amidino-phenyl)-ethyl]-5-[N-(2-morpholinoethyl)-naphth-2-yl-sulphonylamino]-benzimidazole] it is 7.15.
Still for that read-out and setting: the figure for `CN1CCCN(C(=O)CN(c2ccc3c(c2)nc(CCc2ccc(C(=N)N)cc2)n3C)S(=O)(=O)c2ccccc2)CC1` [Example 55, 1-Methyl-2-[2-(4-amidino-phenyl)-ethyl]-5-[N-(4-methyl-1,4-diazepin-1-yl-carbonyl-methyl)-benzenesulphonyl-amino]-benzimidazole] is 7.55; for `Cn1c(CCc2ccc(C(=N)N)cc2)nc2cc(N(Cc3ccccn3)S(=O)(=O)c3ccc4ccccc4c3)ccc21` [Example 44, 1-Methyl-2-[2-(4-amidino-phenyl)-ethyl]-5-[N-(pyrid-2-yl-methyl)-naphth-2-ylsulphonyl-amino]-benzimidazole;] it is 7.66.

System in the next series: not given
Assay: not given
Settings: not given
`Cn1c(CCc2ccc(/C(N)=N/O)cc2)nc2cc(N(CCN3CCOCC3)S(=O)(=O)c3ccccc3)ccc21` [Example 56, N-{2-[2-(4-(amino-hydroximinomethyl)-phenyl)-ethyl]-1-methyl-benzimidazol-5-yl}-N-[2-(morpholin-4-yl)-ethyl]-(benzenesulphonamide)]: the melting point fell in the range of 183 to 186 °C.
